Data reported in publication PMC7565984, “A Phosphorylation-Induced Switch in the Nuclear Localization Sequence of the Intrinsically Disordered NUPR1 Hampers Binding to Importin” (Biomolecules, 2020).
Where a SMILES comes first, the peptide text is derived from it.

Columns and labels:
[1] = biological target: T1, ΔImpα3 (importin α3 without the IBB domain, residues 64-521) (Homo sapiens, UniProt O00629); test: ITC binding of NLS-NUPR1 peptides / NUPR1 to ΔImpα3; details: ITC, 298 K; for ΔH (binding enthalpy), ΔImpα3: absolute error 0.5 kcal/mol; for −TΔS (entropic contribution), ΔImpα3: calculated from Kd and ΔH, absolute error 0.7 kcal/mol; for n (stoichiometry; fraction of binding-competent protein), ΔImpα3: absolute error 0.2, value in parenthesis = fixed in the fit due to low affinity
T1 construct: The His-tagged ΔImpα3 (residues 64-521) was obtained from BL21 (DE3) cells as described; His-tag; made in house; host or cells: Escherichia coli BL21 (DE3)
T1 sequence (O00629 64-521): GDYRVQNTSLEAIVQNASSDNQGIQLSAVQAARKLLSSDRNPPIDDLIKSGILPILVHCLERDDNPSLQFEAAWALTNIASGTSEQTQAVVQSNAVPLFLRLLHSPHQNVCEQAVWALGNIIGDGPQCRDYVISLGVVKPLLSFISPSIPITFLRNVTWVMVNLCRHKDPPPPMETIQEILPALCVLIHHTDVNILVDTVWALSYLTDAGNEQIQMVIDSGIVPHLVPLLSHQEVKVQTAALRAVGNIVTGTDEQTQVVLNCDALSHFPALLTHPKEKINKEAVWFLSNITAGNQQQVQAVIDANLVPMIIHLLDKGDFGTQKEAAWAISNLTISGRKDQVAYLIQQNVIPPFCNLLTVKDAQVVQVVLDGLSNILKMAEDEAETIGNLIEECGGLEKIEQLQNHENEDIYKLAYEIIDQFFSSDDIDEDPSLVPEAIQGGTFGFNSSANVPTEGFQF
Procedure: (§1) The experimental set-up and data processing of ITC experiments has been described previously. Calorimetric titrations, performed in an Auto-iTC200 calorimeter (MicroCal, Malvern-Panalytical, Malvern, UK) consisted of series of 19 2-μL injections, with 150 s time spacing and a 750-rpm stirring speed. Impα3 or ΔImpα3 (at 10–20 μM) was loaded into the calorimetric cell and NLS-NUPR1 peptides in the syringe (150–300 μM); all solutions were prepared in buffer Tris 50 mM, pH 8. […] The binding affinity (association constant) and the binding enthalpy were estimated through a least-squares nonlinear regression data analysis, from which the Gibbs energy and the entropic contribution to the binding were calculated using well-known thermodynamic relationships. Since the binding stoichiometry is constrained by the model, the parameter n provides a fraction of the active or binding competent protein. Experiments for each peptide and importin species were performed, at least, in duplicates.

[2] = biological target: T2, human importin α3 (Impα3) (Homo sapiens, UniProt O00629); test: ITC binding of NLS-NUPR1 peptides / NUPR1 to Impα3; details: for ΔH (binding enthalpy), Impα3: absolute error 0.5 kcal/mol; for −TΔS (entropic contribution), Impα3: calculated from Kd and ΔH, absolute error 0.7 kcal/mol; for n (stoichiometry; fraction of binding-competent protein), Impα3: absolute error 0.2, value in parenthesis = fixed in the fit due to low affinity; for Decrease of the affinity for Impα3 relative to wt peptide: from ITC Kd values
T2 construct: although the IBB region maintains its independence within the whole Impα3 in terms of conformation; His-tag (N); made in house; host or cells: Escherichia coli BL21 (DE3)
T2 sequence (O00629 1-521): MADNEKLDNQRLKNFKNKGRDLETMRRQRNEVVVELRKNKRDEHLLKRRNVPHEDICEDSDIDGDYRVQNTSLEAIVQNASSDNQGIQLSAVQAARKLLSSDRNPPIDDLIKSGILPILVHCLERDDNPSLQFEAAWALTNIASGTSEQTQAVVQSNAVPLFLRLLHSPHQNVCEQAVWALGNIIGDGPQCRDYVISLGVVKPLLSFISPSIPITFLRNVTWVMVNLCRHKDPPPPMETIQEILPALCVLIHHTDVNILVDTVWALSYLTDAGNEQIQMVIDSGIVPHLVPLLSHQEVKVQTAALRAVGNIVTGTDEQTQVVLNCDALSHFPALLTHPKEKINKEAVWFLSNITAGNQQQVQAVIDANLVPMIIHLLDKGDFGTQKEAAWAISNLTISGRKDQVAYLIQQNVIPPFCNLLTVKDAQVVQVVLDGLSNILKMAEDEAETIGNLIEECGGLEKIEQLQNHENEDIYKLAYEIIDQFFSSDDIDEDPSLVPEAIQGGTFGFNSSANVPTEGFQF
Procedure: as §1

[3] = Translational diffusion by NMR DOSY (hydrodynamic properties); assay type: physicochemical; details: for D, translational diffusion coefficient: 283 K, pH 7.2, 50-mM deuterated Tris, 100% D2O, peptide 120 μM; for Rh, hydrodynamic radius from D: from the translational diffusion coefficient of dioxane (Rh = 2.12 Å) added to each sample
Procedure: Concentrations of peptides in all DOSY experiments were 120 μM, and 128 scans, where the gradient strength was varied, were acquired for each curve. Translational self-diffusion measurements were performed with the pulsed gradient spin-echo sequence in the presence of 100% D2O. Experimental details have been described elsewhere. Briefly, the gradient strength was varied in sixteen linear steps between 2% and 95% of the total power of the gradient coil. The gradient strength was previously calibrated by using the value of the translational diffusion coefficient, D, for the residual proton water line in a sample containing 100% D2O in a 5-mm tube [34]. In our experiments for each peptide, the duration of the gradient was 2.25 ms, the time between the two pulse gradients in the pulse sequence was set to 200 ms, and the recovery delay between the bipolar gradients was set to 100 μs. The methyl groups with signals between 1.0 and 0.80 ppm were used for integration. Fitting of the exponential curves obtained from experimental data was carried out with KaleidaGraph (Synergy Software, Version 3.5), as described. A final concentration of 1% of dioxane, which was assumed to have a hydrodynamic radius Rh = 2.12 Å [34], was added to the solutions of each of the peptides to have a comparison for estimating their sizes.

SMILES | ΔH (binding enthalpy), ΔImpα3 ([1]; Tris 50 mM pH 8) [kcal/mol] | −TΔS (entropic contribution), ΔImpα3 ([1]; Tris 50 mM pH 8) [kcal/mol] | n (stoichiometry; fraction of binding-competent protein), ΔImpα3 [1] | ΔH (binding enthalpy), Impα3 ([2]; ITC, 298 K, Tris 50 mM pH 8) [kcal/mol] | −TΔS (entropic contribution), Impα3 ([2]; ITC, 298 K, Tris 50 mM pH 8) [kcal/mol] | n (stoichiometry; fraction of binding-competent protein), Impα3 ([2]; ITC, 298 K) | Decrease of the affinity for Impα3 relative to wt peptide [2] | D, translational diffusion coefficient [3] [cm^2 s^−1 × 10^6] | Rh, hydrodynamic radius from D [3] [Å] | Kd ([1]; Tris 50 mM pH 8, importin 10–20 μM in cell, peptide 150–300 μM in syringe, 1:1 model, at least duplicates, relative error 30%, read-out: Kd (dissociation constant), ΔImpα3) [µM] | Kd ([2]; ITC, 298 K, Tris 50 mM pH 8, importin 10–20 μM in cell, peptide 150–300 μM in syringe, 1:1 model, at least duplicates, relative error 30%, read-out: Kd (dissociation constant), Impα3) [µM]
CC(=O)N[C@@H](Cc1ccc(O)cc1)C(=O)N[C@H](C(=O)N[C@@H](CC(N)=O)C(=O)N[C@@H](CCCNC(=N)N)C(=O)N1CCC[C@H]1C(=O)N[C@@H](CO)C(=O)N1CCC[C@H]1C(=O)NCC(=O)NCC(=O)N[C@@H](Cc1c[nH]cn1)C(=O)N[C@@H](CCC(=O)O)C(=O)N[C@@H](CCCNC(=N)N)C(=O)N[C@@H](C)C(=O)N[C@@H](CC(C)C)C(=O)N[C@H](C(=O)N[C@H](C(=O)N[C@@H](CCCCN)C(=O)N[C@@H](CC(C)C)C(=O)N[C@@H](CCC(N)=O)C(=O)N[C@@H](CC(N)=O)C(=O)N[C@@H](CO)C(=O)N[C@@H](CCC(=O)O)C(N)=O)[C@@H](C)O)C(C)C)[C@@H](C)O [K65A] (Ac-YTNRPSPGGHERALVTKLQNSE-NH2) | -10.2 | 2.6 | 1.4 | -2.8 | -4.6 | 1.4 | two-fold | 1.94 ± 0.08 | 11 ± 1 |  | 
CC(=O)N[C@@H](Cc1ccc(O)cc1)C(=O)N[C@H](C(=O)N[C@@H](CC(N)=O)C(=O)N[C@@H](CCCNC(=N)N)C(=O)N1CCC[C@H]1C(=O)N[C@@H](CO)C(=O)N1CCC[C@H]1C(=O)NCC(=O)NCC(=O)N[C@@H](Cc1c[nH]cn1)C(=O)N[C@@H](CCC(=O)O)C(=O)N[C@@H](CCCNC(=N)N)C(=O)N[C@@H](CCCCN)C(=O)N[C@@H](CC(C)C)C(=O)N[C@H](C(=O)N[C@H](C(=O)N[C@@H](C)C(=O)N[C@@H](CC(C)C)C(=O)N[C@@H](CCC(N)=O)C(=O)N[C@@H](CC(N)=O)C(=O)N[C@@H](CO)C(=O)N[C@@H](CCC(=O)O)C(N)=O)[C@@H](C)O)C(C)C)[C@@H](C)O [K69A] (Ac-YTNRPSPGGHERKLVTALQNSE-NH2) | -21.3 | 14.3 | 1.4 | -10.8 | 4.0 | 1.3 | six-fold | 1.79 ± 0.06 | 12 ± 2 |  | 
CC(=O)N[C@@H](Cc1ccc(O)cc1)C(=O)N[C@H](C(=O)N[C@@H](CC(N)=O)C(=O)N[C@@H](CCCNC(=N)N)C(=O)N1CCC[C@H]1C(=O)N[C@@H](CO)C(=O)N1CCC[C@H]1C(=O)NCC(=O)NCC(=O)N[C@@H](Cc1c[nH]cn1)C(=O)N[C@@H](CCC(=O)O)C(=O)N[C@@H](CCCNC(=N)N)C(=O)N[C@@H](CCCCN)C(=O)N[C@@H](CC(C)C)C(=O)N[C@H](C(=O)N[C@@H](CCC(=O)O)C(=O)N[C@@H](C)C(=O)N[C@@H](CC(C)C)C(=O)N[C@@H](CCC(N)=O)C(=O)N[C@@H](CC(N)=O)C(=O)N[C@@H](CO)C(=O)N[C@@H](CCC(=O)O)C(N)=O)C(C)C)[C@@H](C)O [T68EK69A] (Ac-YTNRPSPGGHERKLVEALQNSE-NH2) | -21.2 | 14.7 |  | -7.5 | 1.0 |  |  | 1.87 ± 0.08 | 11 ± 1 | 17 | 17
